Consider six compounds from patent publication US5919682A, “Overproduction of neuronal nitric oxide synthase” (Board of Regents, University of Texas System, priority 1995, dated 1999).

pKd: −log10 of the molar value. Several values for one entry are separate records, joined by “and”; a condition that tells them apart may be missing. Equal entries are not always repeated. Entries after “also recorded” stand apart in the source; their conditions may differ.

Data set [1] in a line: Specific activity of nNOS (NO formation). The class given is biochemical. The text has this:
(§1) Enzymatic activity determined by the rate of NO. formation. […] L-citrulline from [^3 H] […] For Km analysis, the concentration of [^3 H]

For data set [2], the target named is T1, E. coli-expressed nNOS (Rattus norvegicus, UniProt P29476). Particulars: purified nnos, 2 min. Here is the method: Enzymatic activity determined by the rate of NO. formation. The rate of nitric oxide formation was measured using both the hemoglobin capture assay (Kelm and Schrader, 1990), performed at 25° C. as described by Sheta, et al. (1994), and the method of Bredt and Snyder (1990), which monitors the formation of [^3 H] L-citrulline from [^3 H] […] Each reaction mixture, containing 0.5 mg of enzyme, was incubated at 25° C. for 2 minutes (over which time the reaction is linear). For Km analysis, the concentration of [^3 H]
T1 sequence (P29476 whole entry): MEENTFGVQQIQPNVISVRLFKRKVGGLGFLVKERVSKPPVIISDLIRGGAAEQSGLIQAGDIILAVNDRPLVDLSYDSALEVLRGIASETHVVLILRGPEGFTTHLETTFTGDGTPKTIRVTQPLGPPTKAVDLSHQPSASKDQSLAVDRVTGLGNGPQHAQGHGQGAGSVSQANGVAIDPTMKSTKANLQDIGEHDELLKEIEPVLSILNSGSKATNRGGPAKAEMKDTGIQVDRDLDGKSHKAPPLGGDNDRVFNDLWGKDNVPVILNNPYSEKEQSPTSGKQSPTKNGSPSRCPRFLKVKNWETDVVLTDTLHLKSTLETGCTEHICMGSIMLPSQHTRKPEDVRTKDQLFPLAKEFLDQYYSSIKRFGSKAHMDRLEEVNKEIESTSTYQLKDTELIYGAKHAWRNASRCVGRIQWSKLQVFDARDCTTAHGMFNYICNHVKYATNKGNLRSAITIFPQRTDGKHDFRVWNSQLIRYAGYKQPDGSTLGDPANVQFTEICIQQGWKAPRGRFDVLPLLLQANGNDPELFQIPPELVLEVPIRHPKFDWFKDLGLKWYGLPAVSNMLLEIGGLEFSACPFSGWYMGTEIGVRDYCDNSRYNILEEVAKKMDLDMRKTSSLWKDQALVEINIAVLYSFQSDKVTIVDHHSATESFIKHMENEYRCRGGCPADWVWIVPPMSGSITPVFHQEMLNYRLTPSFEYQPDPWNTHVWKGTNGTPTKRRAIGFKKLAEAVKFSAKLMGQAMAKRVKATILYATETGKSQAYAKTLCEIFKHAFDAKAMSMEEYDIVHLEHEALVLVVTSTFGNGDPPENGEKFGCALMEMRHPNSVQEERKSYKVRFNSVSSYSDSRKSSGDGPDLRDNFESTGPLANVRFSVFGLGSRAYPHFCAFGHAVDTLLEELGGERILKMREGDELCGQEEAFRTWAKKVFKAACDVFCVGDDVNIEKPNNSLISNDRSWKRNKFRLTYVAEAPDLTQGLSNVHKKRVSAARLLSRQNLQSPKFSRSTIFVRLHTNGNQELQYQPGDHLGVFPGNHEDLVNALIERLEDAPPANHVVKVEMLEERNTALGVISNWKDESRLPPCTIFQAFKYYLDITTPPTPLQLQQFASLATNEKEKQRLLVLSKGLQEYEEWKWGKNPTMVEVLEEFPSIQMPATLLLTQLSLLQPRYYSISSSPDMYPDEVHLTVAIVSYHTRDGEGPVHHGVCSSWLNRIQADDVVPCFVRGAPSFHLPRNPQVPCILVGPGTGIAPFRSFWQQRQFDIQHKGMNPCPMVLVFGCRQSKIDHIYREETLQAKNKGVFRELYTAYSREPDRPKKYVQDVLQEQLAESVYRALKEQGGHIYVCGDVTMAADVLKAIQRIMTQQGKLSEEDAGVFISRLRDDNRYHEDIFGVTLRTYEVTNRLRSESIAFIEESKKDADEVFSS
Enzymatic activity of purified E. coli-expressed enzyme.

For data set [3], the target named is T1, E. coli-expressed nNOS. Put plainly: Absolute absorbance spectrum perturbation of nNOS. The class given is binding. On the set-up: made in house; host or cells: E. coli BL21 co-transformed with pNOSpCW and pGroELS. The following applies: imidazole 1 mM; arginine 2 μM. Here is the method:
Studies were performed as described in Example 2 using 3.2 μM nNOS.
(§2) Spectrophotometric methods. Absolute spectra and CO difference spectra were performed essentially as described by McMillan and Masters (1993) with the exception that all measurements were performed in buffer B and the CO difference spectra were obtained by reducing the protein and then bubbling the sample cuvette with CO. Substrate perturbation difference spectra were performed as described (McMillan and Masters, 1993), but in the presence of 1 mM imidazole to shift the entire population of nNOS to the low spin heme state. The molar protein concentration was determined based on heme content and Δε444-475 =75 mM^1 (Stuehr and Ikeda-Saito, 1992; McMillan and Masters, 1995). All spectral analyses were performed using a Shimadzu Model 2101 UV/visible dual-beam spectrophotometer.

The next data set concerns the target nNOS. The following applies: assumed value from McMillan and Masters, 1993, Wolff et al., read-out: Kd imidazole; cited from earlier work.
Data set [4] has as its target T1, E. coli-expressed nNOS. Put plainly: [3H]-NNA binding to purified E. coli-expressed nNOS by direct titration. On the set-up: made in house; host or cells: E. coli BL21 co-transformed with pNOSpCW and pGroELS. Here is the method: Studies were performed as described in Example 4 using 10 pmole nNOS. Symbols are: circles, semi-purified E. coli-expressednNOS eluted from a 2'5'-ADP-Sepharose 4B column in the absence of BH4 during purification; triangles, purified E. coli-expressed nNOS purified in the presence of BH4 as described in Example 1; open symbols represent data from assays performed in the absence of additional BH4; filled symbols represent data from assays performed in the presence of 10 μM BH4.
The incubation was stopped by aspiration of the sample through the PVDF membrane. The wells were washed twice with 200 μl of 50 mM Tris, pH 7.6, air-dried for 10 minutes, 25 μl scintillation cocktail was added, and samples were counted.
Binding of N^ω -nitro-arginine to purified E. coli-expressed enzyme.

Data set [5] concerns nNOS isolated from rat brain. Particulars: read-out: Km for L-arginine; reported by Bredt and Snyder (1990); cited from earlier work.
The target of data set [6] is T1, E. coli-expressed nNOS. Put plainly: Substrate perturbation difference spectrophotometry (spectral binding). On the set-up: made in house; host or cells: E. coli BL21 co-transformed with pNOSpCW and pGroELS. The following applies: 1 mM imidazole present; assuming Kd imidazole 160 μM; read-out: spectral binding constant (KS). Here is the method:
Studies were performed as described in Example 2 using 1.5 μM nNOS in the presence of 1 mM imidazole.
as §2
(FIG. 2B), using the following:
apparent KS =KS (1+[Imidazole]/Kd imidazole).

Data set [7] relates to human kidney 293 cell-purified nNOS. Put plainly: Km analysis, nNOS from human kidney 293 cells. The data set is classed as biochemical, rat. Particulars: read-out: Km for L-arginine. Here is the method:
as §1
These values are in excellent agreement with each other and with the Km value of 2 μM for nNOS reported by Bredt and Snyder (1990).

For the compound “nNOS: rat neuronal NOS overexpressed in E. coli BL21 with chaperonins groEL and groES”, in data set [1], the “specific activity compared with mammalian (kidney 293) cell-expressed nNOS” value is “equal to or exceeding the activity of kidney 293 cell-derived enzyme; also recorded: at least as high as that of kidney 293 cell-expressed enzyme; also recorded: at least equal to or greater than the mammalian cell-expressed nNOS”. For the same compound, in data set [1] (E. coli-expressed nNOS, both hemoglobin capture and citrulline assays), the “specific activity / turnover” value is given as 450 nmol/min/mg.

Consider “nNOS from JM109: nNOS co-expressed with groEL and groES in E. coli JM109, heavily proteolyzed upon cell lysis”, for which the “activity relative to nNOS purified from 293 cells” value in data set [1] (nNOS from E. coli JM109 co-expressing groEL and groES, heavily proteolyzed) came out at 1%.

On to `C[C@H](O)[C@H](O)[C@H]1CNc2nc(N)[nH]c(=O)c2N1` [BH4, (6R)-5, 6, 7, 8 tetrahydro-L-biopterin], for which, at E. coli-expressed nNOS [2], the “stimulation of turnover by BH4, fraction 1” value was found to be 2.7 fold and the “stimulation of turnover by BH4, fraction 2” value is 2.3 fold.

For the compound `c1c[nH]cn1` [imidazole], the “shift of maximum heme absorbance at 400 nm” value on E. coli-expressed nNOS [3] is “low spin form (peak at 428 nm)”. The pKd on nNOS is 3.80.

Regarding `N=C(NCCC[C@H](N)C(=O)O)N[N+](=O)[O-]` [NNA, N^ω -nitro-L-arginine], the Bmax at E. coli-expressed nNOS [4] (Fraction 1, (+) BH4) is on record as 0.54 pmol NNA/pmol nNOS; on E. coli-expressed nNOS [4] (Fraction 1, (-) BH4) it was 0.078 pmol NNA/pmol nNOS; at E. coli-expressed nNOS [4] (Fraction 2, (+) BH4) it was 0.69 pmol NNA/pmol nNOS; at E. coli-expressed nNOS [4] (Fraction 2, (-) BH4) it was 0.67 pmol NNA/pmol nNOS. Further, the “binding of NNA to nNOS fraction 1” value at E. coli-expressed nNOS [4] (fraction 1 (pre-BH4)) is “binds significantly to E. coli-expressed nNOS fraction 1 only in the presence of added BH4”. Further, the “binding of NNA to nNOS fraction 2” value at E. coli-expressed nNOS [4] (fraction 2 (65% BH4-saturated)) is on record as “equally well in the presence or absence of added BH4”.

As to `N=C(N)NCCC[C@H](N)C(=O)O` [L-arginine], the Km (usually the substrate concentration at which the rate is half of its maximum) was 2 µM and ~2 µM in data set [5]; 1.9 µM and ~2 µM in data set [7]. On E. coli-expressed nNOS [6], the pKd was ~6.14 and 6.14. In addition, the “shift of maximum heme absorbance at 400 nm” value on E. coli-expressed nNOS [3] is “completely to the high spin form (peak at 395 nm)”.
